Reference: patent US20210236529A1, “MULTI-TARGETED COMPOSITIONS FOR MITIGATING ACUTE RESPIRATORY DISTRESS SYNDROME” (priority 2020, published 2021)

How the values were obtained:
IL-8 = IL-8 in conditioned medium of 3D ciliated airway tissues, sandwich ELISA; format: cell-based, human; conditions: LPS 1 μg/ml, 72 h total contact
Method: (§1) A second study was undertaken to assess the ability of the select hydrolysable tannins to inhibit select pro-inflammatory interleukins, namely IL-6 and IL-8. The study was conducted using reconstituted human ciliated airway tissue. Specifically, Ninety Six 3D ciliated airway tissues (cat. #34839) were obtained from Mattek (Ashland, Mass.) and were cultured in Assay Media (cat. #031921JRD, MatTek). The tissue samples were rinsed twice before incubation with the MTT reagents. The test materials themselves were solubilized and diluted in sterile distilled water and added to the feeder chamber medium contacting the basal side of the tissues on Day 1. The test material was also applied topically on Day 2 together with LPS (added where indicated at 1 μg/ml, from Escherichia coli 0113, Cayman Chemical Company, Ann Arbor, Mich.) for total contact time of 72 h. The experiments were tested in triplicates or duplicates.
(§2) Following the exposures to the test materials, 1L-6 and IL-8 were quantified in the tissue culture—conditioned medium by sandwich ELISA (Table 4A and 4B). The effect of the test materials on mitochondrial metabolism was measured by the MTT assay, which quantifies the activity of mitochondrial dehydrogenases, such as succinate dehydrogenase, implicated in the respiratory electron transport chain in mitochondria. The MTT conversion values were also used to standardize the IL-6, IL-8 output data to tissue viability.

[1] = molecular target: SARS-CoV-2 RNA Polymerase (RdRp) (Severe acute respiratory syndrome coronavirus 2, UniProt P0DTD1); assay: SARS-CoV-2 RNA Polymerase (RdRp) Assay Kit, fluorescent enzymatic activity in vitro; format: biochemical; conditions: for RdRp activity, % of Control: vs water control; for inhibition of SARS-CoV-2 RNA replication (in words): summary of Tables 1 and 2
IL-6 = IL-6 in conditioned medium of 3D ciliated airway tissues, sandwich ELISA; format: cell-based, human; conditions: LPS 1 μg/ml, 72 h total contact
Method: as §1, §2

Covid-19 patients = conditions: after treatment; preliminary findings, 21 patients; cited from earlier work
[2] = 10 μg/ml, standardized to MTT viability
[3] = 100 μg test material (0.209-0.213 μM)
[4] = 10 μgm/ml, standardized to MTT viability

Molecule	IL-8, % of Control (IL-8; [2])	IL-8, % of Control (IL-8; 50 μg/ml)	IL-8, % of Control (IL-8; 200 μg/ml)	RdRp activity, % of Control ([1]; 10 μg test material)	RdRp activity, % of Control ([1]; 50 μg test material)	RdRp activity, % of Control [1, 3]	inhibition of SARS-CoV-2 RNA replication (in words) [1]	IL-6, % of Control (IL-6; [4])	IL-6, % of Control (IL-6; 50 μgm/ml)	IL-6, % of Control (IL-6; 200 μgm/ml)	IL-8, % of Control (IL-8; 100 μg/ml)	IL-6, % of Control (IL-6; 100 μgm/ml)	IL-8, % of Control (IL-8; 10 μM)	IL-8, % of Control (IL-8; 50 μM)	EC50 [1] [µM]	RdRp activity, % of Control ([1]; 10 μM)	RdRp activity, % of Control ([1]; 50 μM)	IL-6, % of Control (IL-6; 10 μM)	IL-6, % of Control (IL-6; 50 μM)	patients experiencing a reduced need for supplemental oxygen (Covid-19 patients) [%]
O=C(O)C[C@@H]1C(=O)O[C@H]2[C@@H]3OC(=O)c4cc(O)c(O)c(O)c4-c4c(cc(O)c(O)c4O)C(=O)OC[C@H]2O[C@@H](OC(=O)c2cc(O)c(O)c(O)c2)[C@@H]3OC(=O)c2cc(O)c(O)c3c2[C@H]1[C@H](O)C(=O)O3 [Chebulagic acid]	112 % of Control	100 % of Control	66 % of Control	35 % of Control	10 % of Control	8 % of Control	marked inhibition	70 % of Control	40 % of Control	5 % of Control										
O=C(O)C[C@H](C(=O)O)[C@H]1c2c(cc(O)c(O)c2O)C(=O)O[C@@H]1C(=O)O [Chebulic acid, reference compound]	96 % of Control	108 % of Control		105 % of Control	96 % of Control		neither Lopinavir, a commercial inhibitor of viral RNA replication, nor chebulic acid manifested effective inhibition	68 % of Control	106 % of Control		111 % of Control	78 % of Control								
O=C(O)C[C@H]1C(=O)O[C@H]2[C@H](OC(=O)c3cc(O)c(O)c(O)c3)[C@@H](OC(=O)c3cc(O)c(O)c4c3[C@H]1[C@H](O)C(=O)O4)[C@H](OC(=O)c1cc(O)c(O)c(O)c1)O[C@@H]2COC(=O)c1cc(O)c(O)c(O)c1 [Chebulinic acid]	114 % of Control	109 % of Control	101 % of Control	25 % of Control	14 % of Control	7 % of Control	marked inhibition	131 % of Control	96 % of Control	18 % of Control										
Cc1cccc(C)c1OCC(=O)N[C@@H](Cc1ccccc1)[C@@H](O)C[C@H](Cc1ccccc1)NC(=O)[C@H](C(C)C)N1CCCNC1=O [Lopinavir, reference compound]							neither Lopinavir, a commercial inhibitor of viral RNA replication, nor chebulic acid manifested effective inhibition						103 % of Control	104 % of Control	> 50	91 % of Control	80 % of Control	73 % of Control	81 % of Control	
O=C(OC[C@H]1O[C@@H](OC(=O)c2cc(O)c(O)c(O)c2)[C@H](OC(=O)c2cc(O)c(O)c(O)c2)[C@@H](OC(=O)c2cc(O)c(O)c(O)c2)[C@@H]1OC(=O)c1cc(O)c(O)c(O)c1)c1cc(O)c(O)c(O)c1 [Pentagallolyl glucose, Pentagalloyl glucose]	100 % of Control	104 % of Control	0 % of Control	32 % of Control	12 % of Control	4 % of Control	marked inhibition	91 % of Control	64 % of Control	0 % of Control										
Actemra: a humanized anti-IL-6R monoclonal antibody																				75
